Molecular target: cloned human glucagon receptor (Homo sapiens, UniProt P47871)
Experiment: Glucagon Receptor (hGlucR) Binding Assay
Procedure: This plasmid DNA is transfected into 293 HEK cells and selected with 200 μg/mL Hygromycin.
Crude plasma membranes are prepared using cells from suspension culture. The cells are lysed on ice in hypotonic buffer containing 25 mM Tris HCL, pH 7.5, 1 mM MgCl2, DNAse1, 20 u/mL, and Roche Complete Inhibitors-without EDTA. The cell suspension is homogenized with a glass dounce homogenizer using a Teflon pestle for 25 strokes. The homogenate is centrifuged at 4 degrees C. at 1800×g for 15 mins. The supernate is collected and the pellet is resuspended in hypotonic buffer and rehomogenized. The mixture is centrifuged at 1800×g for 15 mins. The second supernate is combined with the first supernate. The combined supernates are recentrifuged at 1800×g for 15 mins to clarify. The clarified supernate is transferred to high speed tubes and centrifuged at 25000×g for 30 minutes at 4 degrees C. The membrane pellet is resuspended in homogenization buffer and stored as frozen aliquots at −80 degree C. freezer until needed.
The specific activity is 2200 Ci/mmol.
The binding buffer contains 25 mM Hepes, pH 7.4, 2.5 mM CaCl2, 1 mM MgCl2, 0.1% fatty acid free BSA, (ICN), 0.003% tween-20, and Roche Complete Inhibitors without EDTA. […] Test compounds are dissolved in DMSO and serially diluted in DMSO. […] Plates are read with a MicroBeta after 14 hours of settling time at room temp. […]

Chain of cloned human glucagon receptor (P47871 26-477): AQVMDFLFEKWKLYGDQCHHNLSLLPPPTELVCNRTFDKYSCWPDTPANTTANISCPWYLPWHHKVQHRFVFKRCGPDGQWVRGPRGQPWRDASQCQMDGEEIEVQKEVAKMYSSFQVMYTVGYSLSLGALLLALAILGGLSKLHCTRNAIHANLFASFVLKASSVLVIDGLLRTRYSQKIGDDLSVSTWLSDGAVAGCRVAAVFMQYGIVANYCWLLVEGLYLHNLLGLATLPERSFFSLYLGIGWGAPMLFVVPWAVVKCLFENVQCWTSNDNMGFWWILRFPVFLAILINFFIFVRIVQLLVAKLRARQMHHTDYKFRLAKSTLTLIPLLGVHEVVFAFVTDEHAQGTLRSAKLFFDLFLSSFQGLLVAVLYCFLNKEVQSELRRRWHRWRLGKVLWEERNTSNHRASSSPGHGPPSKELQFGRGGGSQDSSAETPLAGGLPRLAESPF

Ki [nM]	SMILES
173	CCCCCC(Nc1ccc(-c2ccc(C#N)cc2)cc1)c1ccc(C(=O)NCCC(=O)O)cc1 (centres unmarked)
40	CC(C)CC(Nc1ccc(-c2ccc(C(C)(C)C)cc2)cc1)c1ccc(C(=O)NCCC(=O)O)cc1 (centres unmarked)
